Test results: patent US8679499B2, “Methods for relieving asthma-associated airway hyperresponsiveness” (The Board of Trustees of the Leland Stanford Junior …, priority 2004, dated 2014)
Entries after “also recorded” stand apart in the source; their conditions may differ.

How the values were obtained:
[1] = system: mice with α-GalCer induced airway hyperresponsiveness (AHR); test: α-GalCer induced airway hyperresponsiveness (AHR), methacholine whole body plethysmograph; format: in vivo, BALB/c mice
Procedure: (§1) In murine model of asthma, β-GalCer was administered to OVA-immunized BALB/c mice, or mice with α-GalCer induced airway hyperresponsiveness (AHR).
(§2) Immunizations. BALB/c mice were primed in the footpads with OVA (100 μg/mouse) adsorbed to 200 μg of alum (Al[OH]3). Mice were challenged with 50 μg OVA in 50 μl NaCl 0.9% intranasally 7, 8, and 9 days later. One day after the last intranasal challenge with OVA, airway hyperreactivity was measured from conscious mice after inhalation of increasing concentrations of methacholine in a whole body plethysmograph Immunization with α-GalCer was performed as described.
(§3) Measurement of Airway Responsiveness. Airway responsiveness was assessed by methacholine-induced airflow obstruction from conscious mice placed in a whole body plethysmograph (model PLY 3211, Buxco Electronics Inc., Troy, N.Y.). Pulmonary airflow obstruction was measured by Penh using the following formula:
(§4) [formula] where Penh=enhanced pause (dimensionless), Te=expiratory time, RT=relaxation time, PEF=peak expiratory flow (mI/s), and PIF=peak inspiratory flow (mI/s) (Hamelmann et al. (1997) Am. J. Respir. Crit. Care Med. 156:766-75. Enhanced pause (Penh), minute volume, tidal volume, and breathing frequency were obtained from chamber, pressure, measured with a transducer (model TRD5100) connected to preamplifier modules (model MAX2270) and analyzed by system XA software (model SFT 1810). Measurements of methacholine responsiveness were obtained by exposing mice for 2 min to NaCI 0.9%
(§5) Collection of BAL Fluid and Lung Histology. Animals were injected i.p. with a lethal dose of phenobarbital (450 mg/kg). The trachea was cannulated, and the lung was then lavaged with 0.8 ml of PBS three times, and the fluid pooled. Cells in the lavage fluid were counted using a hemocytometer and BAL cell differentials were determined on slide preparations stained with Hansel Stain (Lide Laboratories, Florissant, Mo.). At least 200 cells were differentiated by light microscopy based on conventional morphologic criteria. In some animals, no BAL was performed but lungs were removed, washed with PBS, fixed in 10% formalin and stained with hematoxylin and eosin.
A minimum of 4 mice per group were used.

[2] = system: NKT cells; test: Oral administration of β-galactosyl ceramide: serum cytokines and liver NKT cell markers; format: in vivo, mouse
Procedure: Doses of β-galactosyl ceramide ranging from 100-800 μg/mouse were administered orally. Cytokine levels of IFN-γ and IL-4 were determined by ELISA as previously described by Zeng et al. (2003), supra. from serum levels.

[3] = system: NKT cells; test: Serum IFN-γ and IL-4 (ELISA) after i.p. glycolipid injection; NKT cell activation in vivo; design: species or system C57BL/6 mice; conditions: 6 hours
Procedure: The i.p. injection of a galactosyl ceramide (obtained from Brigham Young University, Provo, Utah) into C57BL/6 mice increases serum levels of IL-4 and IFN-γ by selectively activating NKT cells. Injection of C12 β galactosyl ceramide (Avanti Lipids, Inc.) i.p. antagonizes the ability of α galactosyl ceramide to raise the levels of IL-4, interferon-gamma, and IgE in the serum of these mice.
Male C57BL/6 mice of about 8 weeks of age were given either 100 μg of β galactosyl ceramide (β Galcer) i.p., 0.1 μg of α galactosyl ceramide (α Galcer) i.p., 100 μg β Galcer i.p. either 1 hour before or at the same time as 0.1 μg α Galcer i.p., or no treatment. β-Galcer was obtained from Avanti Lipids Inc. Glycolipids were in aqueous solutions with PBS. Cytokine levels were determined by ELISA as previously described by Zeng et al. (2003), supra.

[4] = system: NZBxNZW mouse; test: Murine model for systemic lupus erythematosus, proteinuria; format: in vivo; conditions: high dose (100 μg/mouse) injected twice weekly, at 38 weeks; PBS control approximately 30%
Procedure: In a murine model for systemic lupus erythematosus, the NZBxNZW mouse, animals were injected twice weekly with one of: PBS, 50 μg/mouse β-galactosyl ceramide, or 100 μg/mouse β-galactosyl ceramide. The animals were analyzed for proteinuria, which is an indication of the development of lupus. In the control group of 15 mice, at 38 weeks, approximately 30% of the mice were without proteinuria, while approximately 80% of the mice treated with the high dose of β-galactosyl ceramide were without proteinuria.

[5] = system: OVA-immunized BALB/c mice; test: OVA/alum induced AHR, murine model of asthma; format: in vivo
Procedure: as §1, §2
Cytokine ELISA. ELISAS were performed as previously described Macaulay et al. (1998) J. Immunol. 160:1694-1700. The antibody pairs used were as follows, listed by capture/biotinylated detection: IL-4, BVD4-1D11/BVD6-24G2; IFN-γ, R4-6A2/XMG1.2. Recombinant cytokine were used as standards, with curves generated in 1:2 dilutions from […] to 39 pg/ml for IL-4, and 20-2, 156 ng/ml for IFN-γ.
Measurement of anti-OVA antibody isotypes. Mice were bled at the time of sacrifice and OVA-specific antibody was measured using a modified antigen-specific ELISA. For measurement of OVA specific IgG, plates were coated overnight with 5 μg/ml OVA. After washing and blocking, serial diluted sera were added to the plates. Following overnight incubation, the plates were developed using HRPO-conjugated goat anti-IgG subclass-specific antibodies (Southern Biotechnology Associates, Birmingham, Ala.). After additional washing, OPD substrate was added, the plates developed and the OD determined at 492 nm Anti-OVA IgG1 mAb 6C1 and anti-OVA IgG2a mAb 3A11 were used as standards for quantitation of each IgG subclass. Determination of OVA-specific IgE was performed by ELISA, using rat anti-mouse IgE mAb EM95 (5.0 μg/ml) to coat plates. After the samples were applied and incubated overnight, plates were washed and biotinylated OVA (10 μg/ml) was added. Two hours later, plates were washed and HRPO-conjugated streptavidin (Southern Biotechnology Associates) was added. Plates were developed with OPD substrate and the OD determined at 492 nm Sera from mice hyperimmunized with OVA in alum was quantitated for IgE and used as standard for the OVA-specific IgE ELISA.
as §3, §4, §5
(a) AHR was measured on day 10. C12-β-GalCer was administered i.v. (100 μg) 1 day prior to OVA/alum sensitization and 6 hours prior to each i.n. challenge (100 μg). […]

[6] = system: NKT cells; test: Serum IgE and IgG2c before and 10 days after a single i.p. glycolipid injection; format: in vivo, C57BL/6 mice
Procedure: In a separate experiment, mean serum IgE levels of groups of three C57BL/6 mice were measured before or 10 days after a single i.p. injection of 0.1 μg α Galcer alone, 100 μg β Galcer alone, or 100 μg of β Galcer injected 1 hour before 0.1 μg α Galcer. […] The bars show means of triplicate determinations, and the brackets show standard deviations. […] We conclude that β Galcer blocks the increase in serum IgE levels induced by α Galcer. No significant change is seen with the control IgG2c expression.

[7] = glycolipid alone i.p. (100 μg β Galcer or 0.1 μg α Galcer), untreated about 50 pg/ml
[8] = C12-β-GalCer treated group versus OVA/alum positive control
[9] = C12-β-GalCer treated group, four days in culture with 62.5 μg/ml OVA

## CCCCCCCCCCCCC/C=C/[C@@H](O)[C@H](CO[C@@H]1O[C@H](CO)[C@H](O)[C@H](O)[C@H]1O)NC(=O)CCCCCCCCCCC [β Galcer, C12 β galactosyl ceramide]
[1]; 50 μg i.n. and i.v. 2 hours prior to 0.5 μg α-GalCer i.n., 24 hours AHR
  AHR: greatly reduces 24 hours AHR
[1]; 100 μg C12-β-GalCer i.v. 2 hours prior to 1.5 μg α-GalCer i.n., AHR at 24 hours
  AHR: greatly reduces AHR; also recorded: blocks α-GalCer induced AHR
[1]; C12-β-GalCer administered i.n.
  AHR induced by the agent itself: induces mild AHR
[1]; C12-β-GalCer i.v. alone
  AHR induced by the agent itself: does not induce any AHR
[1]; C12-β-GalCer treatment
  peri-bronchiolar eosinophilic inflammation (histology): reduced peri-bronchiolar eosinophilic inflammation
[1]; following α-GalCer induced AHR
  serum IFN-γ: more serum IFN-γ
[1]; i.v. injection of C12-β-GalCer by itself
  lung inflammation (histology): does not result in any lung inflammation
[2]; oral administration, FIG. 5
  staining for NKT cell markers in the liver: decreased staining for NKT cell markers in the liver
[2]; oral, 100-800 μg/mouse
  serum IL-4 level: A similar pattern was observed
[2]; oral, 100-800 μg/mouse, 24 hours after administration
  serum IFN-γ level: no increase in serum levels at any dose
[3]; 100 μg β Galcer alone i.p., untreated about 100 pg/ml
  serum IL-4 level: did not increase the level
[3]; 100 μg β Galcer and 0.1 μg α Galcer given at the same time
  serum IL-4 level: about 250 pg/ml
[3]; 100 μg β Galcer i.p. 1 hour before 0.1 μg α Galcer i.p.
  serum IFN-γ level: below 40 pg/ml
[3]; 100 μg β Galcer i.p. at the same time as 0.1 μg α Galcer i.p.
  serum IFN-γ level: below 40 pg/ml
[3]; 100 μg β Galcer one hour before 0.1 μg α Galcer
  increase of serum IL-4 induced by α Galcer: completely blocked
[3]; [7]
  serum IFN-γ level: did not increase the level
[4]
  mice without proteinuria: approximately 80%
[5]; C12-β-GalCer 100 μg i.v. 1 day prior to OVA/alum sensitization and 6 hours prior to each i.n. challenge, AHR day 10
  AHR: reduce AHR; also recorded: reduces OVA/alum induced AHR
[5]; [8]
  eosinophilic infiltration of the lungs (histology): reduced but present
  neutrophilia in the lungs (histology): possibly more neutrophilia
[5]; C12-β-GalCer treated group, 100 μg i.v.
  serum OVA-specific IgE: reduced
[5]; [9]
  IFN-γ produced by lymph node cells: slightly more IFN-γ
  IL-4 produced by lymph node cells: less IL-4
[6]; treatment with β-Galcer, FIG. 1D
  synthesis of IgG2c (control): not affected

## CCCCCCCCCCCCCCCCCCCCCCCCCC(=O)N[C@@H](CO[C@H]1O[C@H](CO)[C@H](O)[C@H](O)[C@H]1O)[C@H](O)[C@H](O)CCCCCCCCCCCCCC [α Galcer, α galactosyl ceramide, reference compound]
[3]; 0.1 μg α Galcer alone i.p.
  serum IL-4 level: 1000 pg/mL
[3]; 0.1 μg α Galcer alone i.p., versus untreated
  increase of serum IL-4 level: about 10 fold
[3]; [7]
  serum IFN-γ level: increased the level more than two fold
[6]; 0.1 μg α Galcer alone i.p., 10 days after versus before
  rise of serum IgE level: about three fold
